The target in assay [1] is His-tagged KRAS G12D protein (Homo sapiens, UniProt P01116, G12D). Kind of assay: KRAS G12D TR-FRET Assay. The assay is classed as binding. Here is the method: Compounds of interest were prepared in a dose-response titration in DMSO, and 80 nL were added via Labcyte Echo to each well of a 384-well plate (Perkin Elmer 6008280). […] The plate was incubated for 30 minutes at room temperature. Biotinylated KRPep-2d substrate (Amgen) was diluted to 20 nM in Assay Buffer and 2 μL was added to all wells and incubated for 1 h at room temperature. Detection Reagent (0.4 nM LANCE Eu-W1024 Anti-6xHis (Perkin Elmer AD0401), 5 nM streptavidin-d2 (Cisbio 610SADLA)) was prepared in Assay Buffer, then 4 μL was added to the plate and incubated for 1 h at room temperature. Plates were read using PerkinElmer EnVision (ex: 320 nm, em1: 665 nm, em2: 615 nm) and em1/em2 data was used to generate curve fits using a 4-parameter logistic model to calculate IC50 values.

For assay [2], the system named is Phosphorylation of ERK1/2 in A-427 cells. Kind of assay: Phospho-ERK1/2 MSD Assay (A-427 cells). The class given is cell-based. Particulars: Homo sapiens, 2 h treatment, read-out: p-ERK (A427 cells) IC50. The protocol: (§1) A-427 (ATCC® HTB-53™) cells were cultured in RPMI 1640 Medium (ThermoFisher Scientific 11875093) containing 10% fetal bovine serum (ThermoFisher Scientific 16000044) and 1× penicillin-streptomycin-glutamine (ThermoFisher Scientific 10378016). Sixteen hours prior to compound treatment, A-427 cells were seeded in 96-well cell culture plates at a density of 25,000 cells/well and incubated at 37° C., 5% CO2. A compound dose-response titration was diluted in growth media, added to appropriate wells of a cell culture plate, and then incubated at 37° C., 5% CO2 for 2 h. Following compound treatment, cells were washed with ice-cold Dulbecco's phosphate-buffered saline, no Ca^2+ or Mg^2+ (ThermoFisher Scientific 14190144), and then lysed in RIPA buffer (50 mM Tris-HCl pH 7.5, 1% Igepal, 0.5% sodium deoxycholate, 150 mM NaCl, and 0.5% sodium dodecyl sulfate) containing protease inhibitors (Roche 4693132001) and phosphatase inhibitors (Roche 4906837001). Phosphorylation of ERK1/2 in compound-treated lysates was assayed using Phospho-ERK1/2 Whole Cell Lysate kits (Meso Scale Discovery K151DWD) according to the manufacturer's protocol. Assay plates were read on a Meso Scale Discovery Sector Imager 6000, and data were analyzed using a 4-parameter logistic model to calculate IC50 values.

The target of assay [3] is GDP-bound KRAS protein (aa 1-169), containing both G12D and C118A amino acid substitutions (Homo sapiens, UniProt P01116, C118A/G12D). Nature of the assay: KRAS G12D Coupled Nucleotide Exchange Assay. The assay is classed as biochemical. Particulars: 2 h compound pre-incubation. The protocol:
Following compound pre-incubation, purified SOS protein (aa 564-1049) and GTP (Roche 10106399001) were added to the assay wells and incubated for an additional 30 min. […] The assay plates were then read on a PerkinElmer EnVision Multilabel Reader, using AlphaScreen® technology, and data were analyzed using a 4-parameter logistic model to calculate IC50 values.

For assay [4], the system named is Phosphorylation of ERK1/2 in AsPC-1 cells. Kind of assay: Phospho-ERK1/2 MSD Assay (AsPC-1 cells). Particulars: Homo sapiens, read-out: p-ERK (AsPC-1 cells) IC50. The class given is cell-based. Here is the method:
as §1, with “AsPC-1” for “A-427”, “CRL-1682™)” for “HTB-53™)”, “hours.” for “h.”

SMILES strings stand for the structures. Where two headings read alike, the source gives them in different places.

His-tagged KRAS G12D protein, sequence (P01116 1-188 isoform P01116-2 G12D): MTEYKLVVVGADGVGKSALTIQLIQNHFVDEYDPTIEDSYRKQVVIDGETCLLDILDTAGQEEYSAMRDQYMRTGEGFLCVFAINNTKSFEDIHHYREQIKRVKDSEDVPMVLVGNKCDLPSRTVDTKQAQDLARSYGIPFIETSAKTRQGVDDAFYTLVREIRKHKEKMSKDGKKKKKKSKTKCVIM
GDP-bound KRAS protein (aa 1-169), containing both G12D and C118A amino acid substitutions, sequence (P01116 1-169 isoform P01116-2 G12D/C118A): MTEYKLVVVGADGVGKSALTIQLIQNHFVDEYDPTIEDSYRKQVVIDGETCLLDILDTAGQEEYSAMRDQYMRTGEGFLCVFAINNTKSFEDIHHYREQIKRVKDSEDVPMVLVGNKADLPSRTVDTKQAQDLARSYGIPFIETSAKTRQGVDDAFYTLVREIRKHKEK

For orientation: IC50 means the concentration needed to halve the response being measured. Consider `Oc1cc(-c2ccc3c(N4C[C@H]5CC[C@@H](C4)N5)nc(OC[C@@]45CCCN4C[C@H](F)C5)nc3c2F)c2ccccc2c1` [Example 46, 4-(4-((1R,5S)-3,8-diazabicyclo[3.2. 1]octan-3-yl)-8-fluoro-2-(((2R,7aS)-2-fluorotetrahydro-1H-pyrrolizin-7a(5H)-yl)methoxy)quinazolin-7-yl)naphthalen-2-ol], for which the IC50 worked out at 2 nM in assay [1]; 6 nM in assay [2] (A-427, 2 h); 39 nM in assay [4] (ASPC1, 2 h, 2 hours treatment). Besides, the “Avg 2 h Coupled Exchange IC50” value in assay [3] came out at 2 nM.
On to `Fc1cc2c(N3[C@@H]4CC[C@H]3CNC4)nc(OC[C@@]34CCCN3C[C@H](F)C4)nc2c(F)c1-c1cncc2cccc(Cl)c12` [Example 101, 4-((1R,5S)-3,8-Diazabicyclo[3.2.1]octan-8-yl)-7-(5-chloroisoquinolin-4-yl)-6,8-difluoro-2-(((2R,7aS)-2-fluorotetrahydro-1H-pyrrolizin-7a(5H)-yl)methoxy)quinazoline], for which the 50% inhibitory concentration (IC50) in assay [1] was determined as 70 nM; in assay [2], 2920 nM; in assay [4] (ASPC1, 2 hours treatment), 1710 nM. The “Avg 2 h Coupled Exchange IC50” value in assay [3] was 35 nM.
As for `Oc1cc(-c2c(F)cc3c(N4[C@@H]5CC[C@H]4CNC5)nc(OC[C@@]45CCCN4C[C@H](F)C5)nc3c2F)c2ccccc2c1` [Example 12, 4-(4-((1R,5S)-3,8-diazabicyclo[3.2. 1]octan-8-yl)-6,8-difluoro-2-(((2R,7aS)-2-fluorotetrahydro-1H-pyrrolizin-7a(5H)-yl)methoxy)quinazolin-7-yl)naphthalen-2-ol], the half-inhibitory concentration (IC50) amounted to 90 nM in assay [2] (A-427, 2 h) and 293 nM in assay [4] (ASPC1, 2 h, 2 hours treatment).
Turning to `CCc1c(F)ccc2cc(O)cc(-c3c(F)cc4c(N5C[C@H]6CC[C@@H](C5)N6)nc(OCC5(C)CCC(=O)N5)nc4c3F)c12` (stereo partly drawn) [Example 216, 5-(((4-((1R,5S)-3,8-diazabicyclo[3.2.1]octan-3-yl)-7-(8-ethyl-7-fluoro-3-hydroxynaphthalen-1-yl)-6,8-difluoroquinazolin-2-yl)oxy)methyl)-5-methylpyrrolidin-2-one], the IC50 in assay [1] was determined as 5 nM; in assay [4] (ASPC1, 2 h, 2 hours treatment), 834 nM. Besides, in assay [3], the “Avg 2 h Coupled Exchange IC50” value stood at 9 nM.
The like results for `CCc1c(F)ccc2cc(O)cc(-c3ccc4c(N5C[C@H]6CC[C@@](F)(C5)N6)nc(OC[C@@]56CCCN5C[C@H](F)C6)nc4c3F)c12` [Example 179, 5-ethyl-6-fluoro-4-(8-fluoro-4-((1R,5R)-1-fluoro-3,8-diazabicyclo[3.2.1]octan-3-yl)-2-(((2R,7aS)-2-fluorotetrahydro-1H-pyrrolizin-7a(5H)-yl)methoxy)quinazolin-7-yl)naphthalen-2-ol] were, in that order, 2 nM, 46 nM and 4 nM.
`Oc1cc(-c2c(F)cc3c(N4C[C@H]5CC[C@@H](C4)N5)nc(OC[C@@]45CCCN4C[C@H](F)C5)nc3c2F)c2ccccc2c1` [Example 47, 4-(4-((1R,5S)-3,8-diazabicyclo[3.2. 1]octan-3-yl)-6,8-difluoro-2-(((2R,7aS)-2-fluorotetrahydro-1H-pyrrolizin-7a(5H)-yl)methoxy)quinazolin-7-yl)naphthalen-2-ol]: the IC50 in assay [2] (A-427, 2 h) was 11 nM.
`Oc1cc(-c2ccc3c(C4=CC5CCC(C4)N5)nc(OC[C@@]45CCCN4C[C@H](F)C5)nc3c2)c2ccccc2c1` (stereo partly shown) [Example 108]: the IC50 in assay [1] is 11700 nM; in assay [4] (ASPC1, 2 h, 2 hours treatment), 420 nM. The “Avg 2 h Coupled Exchange IC50” value in assay [3] turned out to be 671 nM.
With `Oc1cc(-c2c(F)cc3c(N4C[C@H]5CC[C@@H](C4)N5)nc(OC[C@]45CCCN4C[C@H](F)C5)nc3c2F)c2ccccc2c1` [Example 43, 4-(4-((1R,5S)-3,8-diazabicyclo[3.2. 1]octan-3-yl)-6,8-difluoro-2-(((2R,7aR)-2-fluorotetrahydro-1H-pyrrolizin-7a(5H)-yl)methoxy)quinazolin-7-yl)naphthalen-2-ol], the IC50 in assay [2] (A-427, 2 h) was determined as 16 nM; in assay [4] (ASPC1, 2 h, 2 hours treatment) it was 90 nM.
